Source: patent US9000153B2, “Imidazo[4,5-c]quinolines as DNA-PK inhibitors” (Merck Patent GmbH, priority 2010, dated 2015)

biological target: DNA-PK (Homo sapiens (Human), UniProt P78527); experiment: DNA-PK/biochemical assay (FlashPlate kinase assay); conditions: 5 μM ATP, 90 min, room temperature
Description: The kinase assay was carried out in streptavidin-coated […] microtitre FlashPlates®. To this end, 1.5 μg of the DNA-PK/protein complex and 100 ng of biotinylated substrate, such as, for example, PESQEAFADLWKK biotin-NH2 (“biotin-DNA-PK peptide”), in a total volume of 36.5 μl (34.25 mM HEPES/KOH, 7.85 mM Tris-HCl, 68.5 mM KCl, 5 μM ATP, 6.85 mM MgCl2, 0.5 mM EDTA, 0.14 mM EGTA, 0.69 mM DTT, pH 7.4), were incubated at room temperature for 90 min with 500 ng of DNA from calf thymus, 0.1 μCi of 33P-ATP and 1.8% of DMSO per well with or without the test compound. The reaction was stopped using 50 μl/well of 200 mM EDTA. After incubation for a further 30 min at room temperature, the liquid was removed. Each well was washed three times with 100 μl of 0.9% sodium chloride solution. A non-specific reaction (blank value) was determined using 10 μM of a proprietary kinase inhibitor. The radioactivity measurement was carried out by means of a TopCount. IC50 values were calculated in RS1 (Kashishian et al. (2003) Molecular Cancer Therapeutics 1257).

Structure (SMILES) | IC50 [nM]
COc1cc2ncc3c(c2cc1OC(C(N)=O)c1ccc(F)cc1)n(-c1c(F)cc(C#N)cc1F)c(=O)n3C (stereo not shown) [Compound 25, 2-[1-(4-Cyano-2,6-difluoro-phenyl)-7-methoxy-3-methyl-2-oxo-2,3-dihydro-1H-imidazo-[4,5-c]quinolin-8-yloxy]-2-(4-fluorophenyl)acetamide] | < 100
COc1cc2ncc3c(c2cc1OCc1ccsc1)n(-c1c(F)cc(C#N)cc1F)c(=O)n3C [Compound 26, 3,5-Difluoro-4-(7-methoxy-3-methyl-2-oxo-8-(thiophen-3-ylmethoxy)-2,3-dihydroimidazo-[4,5-c]quinolin-1-yl)benzonitrile] | < 100
COc1cc2ncc3c(c2cc1OCc1ccc(F)cc1)n(-c1c(F)cc(C#N)cc1F)c(=O)n3C [Compound 27, 3,5-Difluoro-4-[8-(4-fluoro-benzyloxy)-7-methoxy-3-methyl-2-oxo-2,3-dihydroimidazo-[4,5-c]quinolin-1-yl]benzonitrile] | < 100
COc1cc2ncc3c(c2cc1OCc1cccs1)n(-c1c(F)cc(C#N)cc1F)c(=O)n3C [Compound 28, 3,5-Difluoro-4-(7-methoxy-3-methyl-2-oxo-8-(thiophen-2-ylmethoxy)-2,3-dihydroimidazo-[4,5-c]quinolin-1-yl)benzonitrile] | < 100
COc1cc2ncc3c(c2cc1OCc1cncs1)n(-c1ccc(C#N)cc1F)c(=O)n3C [Compound 30, 3-Fluoro-4-[7-methoxy-3-methyl-2-oxo-8-(thiazol-5-ylmethoxy)-2,3-dihydroimidazo[4,5-c]-quinolin-1-yl)benzonitrile] | < 100
COc1cc2ncc3c(c2cc1OC(CN)c1cccs1)n(-c1ccc(C#N)cc1F)c(=O)n3C (stereo not shown) [Compound 31, 4-[8-(2-Amino-1-thiophen-2-ylethoxy)-7-methoxy-3-methyl-2-oxo-2,3-dihydroimidazo-[4,5-c]quinolin-1-yl]-3-fluorobenzonitrile] | 100 to 500
COc1cc2ncc3c(c2cc1OC(CN)c1ccc(F)cc1)n(-c1ccc(C#N)cc1F)c(=O)n3C (stereo not shown) [Compound 32, 4-{8-[2-Amino-1-(4-fluorophenyl)ethoxy]-7-methoxy-3-methyl-2-oxo-2,3-dihydro-imidazo[4,5-c]quinolin-1-yl}-3-fluorobenzonitrile] | 500 to 1000
COc1cc2ncc3c(c2cc1-c1cccnc1)n(-c1ccc(C#N)cc1F)c(=O)n3C [Compound 33, 3-Fluoro-4-(7-methoxy-3-methyl-2-oxo-8-pyridin-3-yl-2,3-dihydro-imidazo[4,5-c]quinolin-1-yl)-benzonitrile] | < 100
COc1ccc(-c2cc3c(cc2OC)ncc2c3n(-c3ccc(C#N)cc3F)c(=O)n2C)cn1 [Compound 34, 3-Fluoro-4-[7-methoxy-8-(6-methoxypyridin-3-yl)-3-methyl-2-oxo-2,3-dihydroimidazo[4,5-c]-quinolin-1-yl)benzonitrile] | < 100
COc1cc2ncc3c(c2cc1-c1cnc2ccccc2c1)n(-c1ccc(C#N)cc1F)c(=O)n3C [Compound 35, 3-Fluoro-4-(7-methoxy-3-methyl-2-oxo-8-quinolin-3-yl-2,3-dihydroimidazo[4,5-c]quinolin-1-yl)benzonitrile] | < 100
COc1cc2ncc3c(c2cc1-c1cnn(C)c1)n(-c1ccc(C#N)cc1F)c(=O)n3C [Compound 36, 3-Fluoro-4-[7-methoxy-3-methyl-8-(1-methyl-1H-pyrazol-4-yl)-2-oxo-2,3-dihydroimidazo[4,5-c]-quinolin-1-yl]benzonitrile] | < 100
COc1cc2ncc3c(c2cc1-c1cn[nH]c1)n(-c1ccc(C#N)cc1F)c(=O)n3C [Compound 37, 3-Fluoro-4-[7-methoxy-3-methyl-2-oxo-8-(1H-pyrazol-4-yl)-2,3-dihydroimidazo[4,5-c]quinolin-1-yl)benzonitrile] | < 100
COc1cc2ncc3c(c2cc1-c1ccnn1C)n(-c1ccc(C#N)cc1F)c(=O)n3C [Compound 38, 3-Fluoro-4-[7-methoxy-3-methyl-8-(2-methyl-2H-pyrazol-3-yl)-2-oxo-2,3-dihydroimidazo[4,5-c]-quinolin-1-yl)benzonitrile] | 100 to 500
